The conditions of data set [1]: ref Vandermeulen et al., 2006; cited from earlier work.
The nature of data set [2]: Determination of aqueous solubility. The following applies: phosphate buffer, pH 7, aqueous buffer, thermodynamic from solid. Type of data set: physicochemical.
For data set [3], the system named is L. infantum axenic amastigotes. In words: Axenic amastigote assay. Format: cell-based, Leishmania infantum.
The test system of data set [4] is L. infantum intracellular amastigotes in U937 macrophages. In words: In vitro macrophage infection and intracellular amastigote assay. The following applies: infected U937 macrophages, 20 μM. Type of data set: cell-based, Leishmania infantum.

≈ marks a conversion by molar mass, not a printed value. Entries after “also recorded” stand apart in the source; their conditions may differ.

Usually aqueous solubility stands for the concentration that dissolves in the medium under given conditions. Consider `C[C@@H]1[C@H](O)[C@@H](C)/C=C/C=C/C=C/C=C/C=C/C=C/C=C/[C@H](O[C@@H]2O[C@H](C)[C@@H](O)[C@H](N)[C@@H]2O)C[C@@H]2O[C@](O)(C[C@@H](O)C[C@@H](O)[C@H](O)CC[C@@H](O)C[C@@H](O)CC(=O)O[C@H]1C)C[C@H](O)[C@H]2C(=O)O` [Amphotericin B], for which the aqueous solubility in data set [1] was 1 µg/mL (≈ 1.08 µM).
As usually defined, the thermodynamic solubility is the concentration in solution at equilibrium with solid. `COc1ccc(NS(=O)(=O)c2ccc(N)cc2)cc1OC` [Compound 26, 4-Amino-N-(3,4-dimethoxyphenyl)benzenesulfonamide] displayed a solubility (thermodynamic) at 72 h in data set [2] of 55 µg/mL (≈ 178 µM).
Same read-out and setting: the same measure for `COc1cc(N)c(NS(=O)(=O)c2ccc(N(C)C)cc2)cc1OC` [Compound 35, N-(2-amino-4,5-dimethoxyphenyl)-4-(dimethylamino)benzenesulfonamide]: 118 µg/mL (≈ 336 µM).
Same read-out and setting: to `COc1ccc(S(=O)(=O)Nc2c(C(=O)Nc3c(C(=O)O)cc(OC)c(OC)c3OC)cc(OC)c(OC)c2OC)cc1` [Compound 63B, 3,4,5-trimethoxy-2-(3,4,5-trimethoxy-2-((4-methoxyphenyl)sulfonamido)benzamido)benzoic acid] belongs 1890 µg/mL (≈ 3110 µM).
`COc1ccc(S(=O)(=O)Nc2cc(OC)c(NC(=O)CCl)cc2OC)cc1` [Compound 129, 2-Chloro-N-(2,5-dimethoxy-4-((4-methoxyphenyl)sulfonamido)phenyl)acetamide]: the “Leishmania infantum Axenic amastigotes IC50 (μM)” value in data set [3] (48 h treatment, XTT) is on record as “sub-micromolar”. Also, in data set [4], the “activity against intracellular amastigotes (in words)” value (shortened to “activity”) was “active; also recorded: infection clearly interrupted”.
As for `COc1ccc(S(=O)(=O)Nc2cc(C#N)ccc2OS(=O)(=O)c2ccc(OC)cc2)cc1` [Compound 276B, 4-cyano-2-((4-methoxyphenyl)sulfonamido)phenyl 4-methoxybenzenesulfonate], the “Selectivity index Axenic amastigotes” value in data set [3] (IC50 cellular cytotoxicity (HeLa)/IC50 antileishmanial activity) came to 11.5. In data set [4], the “activity” value was “active”.
As to `COc1ccc(S(=O)(=O)N(Cc2ccccc2)c2ccc(OC)nc2)cc1` [Compound 279, N-benzyl-4-methoxy-N-(6-methoxypyridin-3-yl)benzenesulfonamide], the “activity” value in data set [4] was “inactive”.
